This passage reports EC50 results from EP1893597B1, “AMPA RECEPTOR POTENTIATORS” (ELI LILLY AND COMPANY, priority 2005, dated 2006).

The EC50 is the concentration at which the effect is half-maximal.

The structures appear in SMILES notation.

The experiment addresses T1, human iGluR4 (Homo sapiens, UniProt P48058).
T1 construct: expressed in transfected cells; host or cells: HEK293
Kind of experiment: Whole-cell voltage clamp potentiation of currents evoked by 1 mM glutamate in HEK293 cells stably expressing human iGluR4. As to conditions: HEK293 cells stably expressing human iGluR4, voltage-clamped at -60mV, concentration increased in half log units, fit to the Hill equation. It counts as cell-based. The source says:
HEK293 cells stably expressing human iGluR4 (obtained as described in European Patent Application Publication No. EP-A1-0583917) are used in the electrophysiological characterization of AMPA receptor potentiators. The extracellular recording solution contains (in mM): 140 NaCl, 5 KCl, 10 HEPES, 1 MgCl2, 2 CaCl2, 10 glucose, pH = 7.4 with NaOH, 295 mOsm kg-1. The intracellular recording solution contains (in mM): 140 CsCl, 1 MgCl2, 10 HEPES, (N-[2-hydroxyethyl]piperazine-N1-[2-ethanesulfonic acid]) 10 EGTA (ethylene-bis(oxyethylene-nitrilo)tetraacetic acid), pH = 7.2 with CsOH, 295 mOsm kg-1. With these solutions, recording pipettes have a resistance of 2-3 MΩ. […] Responses to 1 mM glutamate are then determined in the presence of test compound. […]
In order to determine the potency of test compounds, the concentration of the test compound, both in the bathing solution and co-applied with glutamate, is increased in half log units until the maximum effect was seen. […] Reversibility of test compound activity is determined by assessing control glutamate 1mM responses. Once the control responses to the glutamate challenge are re-established, the potentiation of these responses by 100 µM cyclothiazide is determined by its inclusion in both the bathing solution and the glutamate-containing solution. In this manner, the efficacy of the test compound relative to that of cyclothiazide can be determined.

T1 sequence (P48058 21-902): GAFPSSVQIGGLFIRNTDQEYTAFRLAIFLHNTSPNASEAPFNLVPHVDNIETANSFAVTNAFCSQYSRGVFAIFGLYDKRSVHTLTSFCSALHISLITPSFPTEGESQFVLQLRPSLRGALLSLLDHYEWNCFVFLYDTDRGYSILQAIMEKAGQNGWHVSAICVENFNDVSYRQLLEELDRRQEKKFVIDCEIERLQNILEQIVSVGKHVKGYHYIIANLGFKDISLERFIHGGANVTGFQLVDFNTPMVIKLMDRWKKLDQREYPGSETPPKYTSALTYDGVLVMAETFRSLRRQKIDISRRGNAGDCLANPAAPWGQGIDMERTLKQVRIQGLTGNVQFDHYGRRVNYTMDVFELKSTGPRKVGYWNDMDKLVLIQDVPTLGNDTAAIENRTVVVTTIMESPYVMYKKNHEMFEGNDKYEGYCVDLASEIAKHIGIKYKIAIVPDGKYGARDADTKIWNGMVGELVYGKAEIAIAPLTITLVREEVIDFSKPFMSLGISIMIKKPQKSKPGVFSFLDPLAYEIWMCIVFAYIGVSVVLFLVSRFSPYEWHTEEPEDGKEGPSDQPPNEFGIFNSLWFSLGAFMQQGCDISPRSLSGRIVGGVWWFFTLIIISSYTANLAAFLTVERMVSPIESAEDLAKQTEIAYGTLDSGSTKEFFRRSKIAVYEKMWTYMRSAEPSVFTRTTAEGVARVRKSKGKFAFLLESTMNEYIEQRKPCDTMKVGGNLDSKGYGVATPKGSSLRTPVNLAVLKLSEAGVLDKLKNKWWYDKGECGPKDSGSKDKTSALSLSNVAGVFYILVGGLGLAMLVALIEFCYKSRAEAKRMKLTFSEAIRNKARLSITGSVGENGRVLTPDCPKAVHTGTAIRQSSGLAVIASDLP

As to `CC(C)S(=O)(=O)Nc1ccccc1-c1ccc(-c2ccc(-c3nnn[nH]3)cc2)cc1` [Example 77, Propane-2-sulfonic acid [4"-(1H-tetrazol-5-yl)-[1,1';4',1"]terphenyl-2-yl]-amide], the half-maximal effective concentration (EC50) was found to be 445 nM.
